Patent publication US11884658B1, “1-cyclopropyl-6-fluoro-4-oxo-7-(4-((2-thioxobenzo[d]thiazol-3(2H)-yl)methyl)piperazin-1-yl)-1,4-dihydroquinoline-3-carboxylic acid as an antimicrobial compound” (KING FAISAL UNIVERSITY, priority 2023, dated 2024)

Tests used:
Format in all cases: cell-based
Bacillus Cereus = experiment: agar plate disc-diffusion, inhibition zone; settings: Gram positive; for zone of inhibition at 10000 ppm: A = concentration of comp. = 10,000 ppm; for zone of inhibition at 30000 ppm: B = concentration of comp. = 30000 ppm; for zone of inhibition at 50000 ppm: C = concentration of comp. = 50,000 ppm
Protocol: (§1) The antimicrobial properties of the synthesized compound was studied by the method of agar plate disc-diffusion. Sterilized filter papers (6 mm in diameter) were wetted with 10 μL of a solution of 1-cyclopropyl-6-fluoro-4-oxo-7-(4-((2-thioxobenzo[d]thiazol-3(2H)-yl)methyl)piperazin-1-yl)-1,4-dihydroquinoline-3-carboxylic acid (4) to be tested, containing 10 mg/mL in DMSO and the discs were allowed to air dry. The discs were then placed onto the surface of agar plates (nutrient agar for bacteria) seeded with the test organism. Each plate contained 15 mL of the agar medium, previously seeded with 0.2 mL of the broth culture of each organism pregrown for 18 h. The inhibition zones were measured in […]. Discs impregnated with DMSO were used as a control, and its inhibition zone was subtracted from the tested compound actual inhibition zone.

Escherichia coli = experiment: agar plate disc-diffusion, inhibition zone; settings: Gram negative; for zone of inhibition at 10000 ppm: A = concentration of comp. = 10,000 ppm; for zone of inhibition at 30000 ppm: B = concentration of comp. = 30000 ppm; for zone of inhibition at 50000 ppm: C = concentration of comp. = 50,000 ppm
Protocol: as §1

Pseudomonas aeruginosa = experiment: agar plate disc-diffusion, inhibition zone; settings: Gram negative; for zone of inhibition at 10000 ppm: A = concentration of comp. = 10,000 ppm; for zone of inhibition at 30000 ppm: B = concentration of comp. = 30000 ppm; for zone of inhibition at 50000 ppm: C = concentration of comp. = 50,000 ppm
Protocol: as §1

Staphylococcus aureus = experiment: agar plate disc-diffusion, inhibition zone; settings: Gram positive; for zone of inhibition at 10000 ppm: A = concentration of comp. = 10,000 ppm; for zone of inhibition at 30000 ppm: B = concentration of comp. = 30000 ppm; for zone of inhibition at 50000 ppm: C = concentration of comp. = 50,000 ppm
Protocol: as §1

[1] = system: gram positive and gram-negative bacterial strains; experiment: antibacterial activity screen, overall statement; settings: Bacillus cereus, Staphylococcus aureus, Pseudomonas aeruginosa and Escherichia coli
Protocol: as §1

SMILES	zone of inhibition at 10000 ppm (Bacillus Cereus) [mm]	zone of inhibition at 30000 ppm (Bacillus Cereus) [mm]	zone of inhibition at 50000 ppm (Bacillus Cereus) [mm]	zone of inhibition at 10000 ppm (Escherichia coli) [mm]	zone of inhibition at 30000 ppm (Escherichia coli) [mm]	zone of inhibition at 50000 ppm (Escherichia coli) [mm]	zone of inhibition at 10000 ppm (Pseudomonas aeruginosa) [mm]	zone of inhibition at 30000 ppm (Pseudomonas aeruginosa) [mm]	zone of inhibition at 50000 ppm (Pseudomonas aeruginosa) [mm]	zone of inhibition at 10000 ppm (Staphylococcus aureus) [mm]	zone of inhibition at 30000 ppm (Staphylococcus aureus) [mm]	zone of inhibition at 50000 ppm (Staphylococcus aureus) [mm]	antibacterial activities (in words) [1]
O=C(O)c1cn(C2CC2)c2cc(N3CCNCC3)c(F)cc2c1=O [Cip., ciprofloxacin, reference compound]	29	30	42	30	39	60	29	30	53	43	44	53	–
O=C(O)c1cn(C2CC2)c2cc(N3CCN(Cn4c(=S)sc5ccccc54)CC3)c(F)cc2c1=O [Compound 4, 1-cyclopropyl-6-fluoro-4-oxo-7-(4-((2-thioxobenzo[d]thiazol-3(2H)-yl)methyl)piperazin-1-yl)-1,4-dihydroquinoline-3-carboxylic acid]	35	39	44	39	44	49	24	31	39	10	17	22	good antibacterial activities
